Patent US12570638B2, “Fused imidazole derivatives as AHR antagonists” (Sail Biomedicines, Inc., priority 2020, dated 2026)

Legend:
[1] = Hepatocyte Stability Assay, human; format: in vitro ADME; conditions: cryopreserved hepatocytes, read-out: Human hepatocyte clearance
Procedure: Preparation of working solutions: 10 mM stock solutions of test compound and positive control were prepared in DMSO. In separate conical tubes, the 10 mM solution of test compound and the positive control were diluted to 100 μM by combining 198 μL of 50% acetonitrile/50% water and 2 μL of 10 mM stock.
Preparation of Hepatocytes: Incubation medium (William's E Medium supplemented with GlutaMAX) and hepatocyte thawing medium were placed in a 37° C. water bath and allowed warming for at least 15 minutes prior to use. A vial of cryopreserved hepatocytes was transferred from storage, ensuring that vials remained at cryogenic temperatures until thawing process ensued. Cells were thawed by placing the vial in a 37° C. water bath and gently shaking the vials for 2 minutes. […] Using an AO/PI Staining, cells were counted and the viable cell density was determined. Cells with poor viability (<75% viability) were determined to be not acceptable for use. […]
Data Analysis: All calculations were carried out using Microsoft Excel. Peak areas were determined from extracted ion chromatograms. In vitro half-life (t1/2) of parent compound was determined by regression analysis of the percent parent disappearance vs. time curve.
The in vitro half-life (in vitro t1/2) was determined from the slope value: in vitro t1/2=0.693/k […]

[2] = Caco-2 Permeability Assay; format: in vitro ADME; conditions: human; for Papp A→B at 2 h, 1 μM: Caco-2, pH 7.4, apical to basolateral, read-out: Caco2 Papp (AB); for Papp B→A at 2 h, 1 μM: Caco-2, pH 7.4, basolateral to apical, read-out: Caco2 Papp (BA)
Procedure: Preparation of Caco-2 Cells: 50 μL and 25 mL of cell culture medium were added to each well of the Transwell insert and reservoir, respectively. The HTS transwell plates were incubated at 37° C., 5% CO2 for 1 hour before cell seeding. Caco-2 cells were diluted to 6.86×10^5 cells/mL with culture medium and 50 μL of cell suspension were dispensed into the filter well of the 96-well HTS Transwell plate. Cells were cultivated for 14-18 days in a cell culture incubator at 37° C., 5% CO2, 95% relative humidity. Cell culture medium was replaced every other day, beginning no later than 24 hours after initial plating.
Assessment of Cell Monolayer Integrity: Medium was removed from the reservoir and each Transwell insert and replaced with prewarmed fresh culture medium. Transepithelial electrical resistance (TEER) across the monolayer was measured using Millicell Epithelial Volt-Ohm measuring system (Millipore, USA). The Plate was returned to the incubator once the measurement was done. The TEER value was calculated according to the following equation: TEER measurement (ohms)×Area of membrane (cm^2)=TEER value (ohm·cm^2)
TEER value should be greater than 230 ohm·cm^2, which indicates the well-qualified Caco-2 monolayer.
Preparation of Solutions: 2 mM stock solutions in DMSO of control compounds were prepared and diluted with HBSS (10 mM HEPES, pH 7.4) to get 10 μM working solution. 0.2 mM stock solutions of test compounds in DMSO were prepared and diluted with HBSS (10 mM HEPES, pH 7.4 with 0.5% BSA) to get 1 μM working solution. Metoprolol, erythromycin and cimetidine were used as control compounds.
Performing the Drug Transport Assay: The Caco-2 plate was removed from the incubator. The monolayer was washed twice with pre-warmed HBSS (10 mM HEPES, pH 7.4). The plate was incubated at 37° C. for 30 minutes. To determine the rate of drug transport in the apical to basolateral direction, 125 μL of the working solution was added to the Transwell insert (apical compartment). A 50 μL sample was transferred immediately from the apical compartment to 200 μL of acetonitrile containing IS (100 nM alprazolam, 200 nM Caffeine and 100 nM tolbutamide) in a new 96-well plate as the initial donor sample (A-B) and it was vortexed at 1000 rpm for 10 minutes. The wells in the receiver plate (basolateral compartment) were filled with 235 μL of transport buffer. To determine the rate of drug transport in the basolateral to apical direction, 285 μL of the working solution were added to the receiver plate wells (basolateral compartment). […]
Data analysis: All calculations were carried out using Microsoft Excel. Peak areas were determined from extracted ion chromatograms. […]

Compound | CLint scaled at 1 μM [1] [mL/min/kg] | Papp A→B at 2 h, 1 μM [2] [×10⁻⁶ cm/s] | Papp B→A at 2 h, 1 μM [2] [×10⁻⁶ cm/s]
Cn1nccc1C(=O)Nc1ccc2nc(-c3ccccc3C(F)(F)F)[nH]c2c1 [A, 1-methyl-N-(2-(2-(trifluoromethyl)phenyl)-1H-benzo[d]imidazol-6-yl)-1H-pyrazole-5-carboxamide] | < 20 | > 10 | > 10
Cn1ncnc1C(=O)Nc1ccc2nc(-c3ccccc3C(F)(F)F)[nH]c2c1 [Compound H, 1-methyl-N-(2-(2-(trifluoromethyl)phenyl)-1H-benzo[d]imidazol-6-yl)-1H-1,2,4-triazole-5-carboxamide] | < 20 | > 10 | > 10
